Assay results taken from PubChem BioAssay AID2060907 (Molecular Pharmacology Branch, DTP, NCI, 2025).

Tested on: 388556-164-R-J1-PDC complex spheroid viability
Assay: Anticancer human tumor 388556-164-R-J1-PDC patient-derived colon adenocarcinoma cell line growth inhibition [RAS]
Conditions: for IC50: curve of first compound; for viability, T/C: stronger effect = lower value
Procedure, shortened: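 Agents were tested in combination matrices in half-log decrements from a top concentration at or near clinical Cmax (10 microM if undetermined). Targets were multi-cell spheroids of tumour lines plus HUVEC and MSC stromal cells.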

[1] = second compound 0.00316 µM, first compound 0.0316 µM
[2] = second compound 0.00316 µM, first compound 0.1 µM
[3] = second compound 0.00316 µM, first compound 0.316 µM
[4] = second compound 0.00316 µM, first compound 1 µM
[5] = second compound 0.00316 µM, first compound 3.16 µM
[6] = second compound 0.00316 µM, first compound 10 µM
[7] = second compound 0.01 µM, first compound 0.0316 µM
[8] = second compound 0.01 µM, first compound 0.1 µM
[9] = second compound 0.01 µM, first compound 0.316 µM
[10] = second compound 0.01 µM, first compound 1 µM
[11] = second compound 0.01 µM, first compound 3.16 µM
[12] = second compound 0.01 µM, first compound 10 µM
[13] = second compound 0.0316 µM, first compound 0.0316 µM
[14] = second compound 0.0316 µM, first compound 0.1 µM
[15] = second compound 0.0316 µM, first compound 0.316 µM
[16] = second compound 0.0316 µM, first compound 1 µM
[17] = second compound 0.0316 µM, first compound 3.16 µM
[18] = second compound 0.0316 µM, first compound 10 µM
[19] = second compound 0.1 µM, first compound 0.0316 µM
[20] = second compound 0.1 µM, first compound 0.1 µM
[21] = second compound 0.1 µM, first compound 0.316 µM
[22] = second compound 0.1 µM, first compound 1 µM
[23] = second compound 0.1 µM, first compound 3.16 µM
[24] = second compound 0.1 µM, first compound 10 µM
[25] = second compound 0.316 µM, first compound 0.0316 µM
[26] = second compound 0.316 µM, first compound 0.1 µM
[27] = second compound 0.316 µM, first compound 0.316 µM
[28] = second compound 0.316 µM, first compound 1 µM
[29] = second compound 0.316 µM, first compound 3.16 µM
[30] = second compound 0.316 µM, first compound 10 µM
[31] = second compound 1 µM, first compound 0.0316 µM
[32] = second compound 1 µM, first compound 0.1 µM
[33] = second compound 1 µM, first compound 0.316 µM
[34] = second compound 1 µM, first compound 1 µM
[35] = second compound 1 µM, first compound 3.16 µM
[36] = second compound 1 µM, first compound 10 µM
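Note: spheroids exposed to compound for 7 days before readout.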
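Throughout, for viability, T/C: 100% = DMSO vehicle control luminescence.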

Cc1nc(N2CCC3(CC2)COC(C)C3N)c(CO)nc1Sc1ccnc(N)c1Cl (centres undefined) + C=CC(=O)N1CCN(c2nc(OCC3CCCN3C)nc3c(F)c(-c4nc(N)cc(C)c4C(F)(F)F)c(Cl)cc23)C(C)C1
IC50 (second compound 0.00316 µM): 2.82 µM
IC50 (second compound 0.01 µM): 3.77 µM
IC50 (second compound 0.0316 µM): 6.52 µM
IC50 (second compound 0.1 µM): 3.06 µM
IC50 (second compound 0.316 µM): 3.34 µM
IC50 (second compound 1 µM): 1.52 µM
viability, T/C [1]: 88.3%
viability, T/C [2]: 83.7%
viability, T/C [3]: 72.8%
viability, T/C [4]: 58.3%
viability, T/C [5]: 49.2%
viability, T/C [6]: 45.3%
viability, T/C [7]: 94.7%
viability, T/C [8]: 82.4%
viability, T/C [9]: 75.7%
viability, T/C [10]: 61.7%
viability, T/C [11]: 49.7%
viability, T/C [12]: 43.7%
viability, T/C [13]: 86.1%
viability, T/C [14]: 79.9%
viability, T/C [15]: 73.3%
viability, T/C [16]: 63.3%
viability, T/C [17]: 55.3%
viability, T/C [18]: 47%
viability, T/C [19]: 95.5%
viability, T/C [20]: 83.5%
viability, T/C [21]: 70.5%
viability, T/C [22]: 60.9%
viability, T/C [23]: 49.6%
viability, T/C [24]: 40.6%
viability, T/C [25]: 97.7%
viability, T/C [26]: 78%
viability, T/C [27]: 70.9%
viability, T/C [28]: 63.8%
viability, T/C [29]: 54.1%
viability, T/C [30]: 36.9%
viability, T/C [31]: 91.2%
viability, T/C [32]: 92.5%
viability, T/C [33]: 68.5%
viability, T/C [34]: 56.7%
viability, T/C [35]: 42.3%
viability, T/C [36]: 39.8%

C[C@@H](NC(=O)c1ncnc(N)c1Cl)c1ncc(C(=O)Nc2cc(C(F)(F)F)c(Cl)cn2)s1 + C=CC(=O)N1CCN(c2nc(OCC3CCCN3C)nc3c(F)c(-c4nc(N)cc(C)c4C(F)(F)F)c(Cl)cc23)C(C)C1
IC50 (second compound 0.00316 µM): > 10 µM
IC50 (second compound 0.01 µM): > 10 µM
IC50 (second compound 0.0316 µM): > 10 µM
IC50 (second compound 0.1 µM): > 10 µM
IC50 (second compound 0.316 µM): > 10 µM
IC50 (second compound 1 µM): > 10 µM
viability, T/C [1]: 111%
viability, T/C [2]: 114%
viability, T/C [3]: 133%
viability, T/C [4]: 111%
viability, T/C [5]: 112%
viability, T/C [6]: 104%
viability, T/C [7]: 111%
viability, T/C [8]: 115%
viability, T/C [9]: 121%
viability, T/C [10]: 114%
viability, T/C [11]: 119%
viability, T/C [12]: 98.4%
viability, T/C [13]: 111%
viability, T/C [14]: 118%
viability, T/C [15]: 116%
viability, T/C [16]: 117%
viability, T/C [17]: 128%
viability, T/C [18]: 101%
viability, T/C [19]: 109%
viability, T/C [20]: 109%
viability, T/C [21]: 110%
viability, T/C [22]: 117%
viability, T/C [23]: 117%
viability, T/C [24]: 91.8%
viability, T/C [25]: 126%
viability, T/C [26]: 122%
viability, T/C [27]: 113%
viability, T/C [28]: 125%
viability, T/C [29]: 122%
viability, T/C [30]: 97.1%
viability, T/C [31]: 119%
viability, T/C [32]: 116%
viability, T/C [33]: 127%
viability, T/C [34]: 133%
viability, T/C [35]: 119%
viability, T/C [36]: 97.7%
